Test results reported in patent US7704995B2 (Exelixis, Inc., priority 2003, dated 2010).

Molecular target: T1, Chk1 (Homo sapiens, UniProt O14757)
T1 construct: purchased Upstate Biotechnology
T1 sequence (O14757 1-476): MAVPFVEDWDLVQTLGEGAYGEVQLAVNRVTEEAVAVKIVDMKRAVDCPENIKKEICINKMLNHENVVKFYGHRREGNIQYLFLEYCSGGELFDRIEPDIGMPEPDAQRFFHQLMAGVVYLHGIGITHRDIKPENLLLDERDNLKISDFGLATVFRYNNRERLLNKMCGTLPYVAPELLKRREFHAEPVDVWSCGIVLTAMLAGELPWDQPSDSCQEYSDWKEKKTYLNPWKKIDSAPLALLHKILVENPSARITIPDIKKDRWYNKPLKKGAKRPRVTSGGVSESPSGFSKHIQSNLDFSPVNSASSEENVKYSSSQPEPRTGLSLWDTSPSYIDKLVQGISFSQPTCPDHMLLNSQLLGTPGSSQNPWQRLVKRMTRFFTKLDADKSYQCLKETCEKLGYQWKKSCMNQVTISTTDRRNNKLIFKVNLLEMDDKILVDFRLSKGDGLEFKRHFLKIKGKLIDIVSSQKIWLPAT
Assay: Chk1 kinase assay: incorporation of γ-33P ATP into immobilized myelin basic protein
Type: biochemical
Conditions: Table 11, Chk1 only; class symbols A-D; read-out: Chk1 IC50
Method in brief: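 Plates coated with MBP, then kinase reactions in Hepes pH 7.6 buffer with 10 mM MgCl2 and 1% DMSO were started by adding unlabeled plus γ-33P ATP (10 μM for Chk1 at 10 nM enzyme; 30 μM for Chk2 at 20 nM enzyme). After 1 h at room temperature, plates were washed and counted.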

`Nc1ncc(-c2cccc(C(=O)NCc3ccc(F)c(F)c3)c2)nc1C(=O)N[C@H]1CCCNC1` [Example 1011, 3-amino-6-[3-({[(3,4-difluorophenyl)methyl]amino}carbonyl)phenyl]-N-[(3S)-piperidin-3-yl]pyrazine-2-carboxamide] and `Cc1ccc(CNC(=O)c2cccc(-c3cnc(N)c(C(=O)N[C@H]4CCCNC4)n3)c2)cc1F` [Example 1018, 3-amino-6-[3-({[(3-fluoro-4-methylphenyl)methyl]amino}carbonyl)phenyl]-N-[(3S)-piperidin-3-yl]pyrazine-2-carboxamide] cannot be ordered by IC50: less than 0.05 µM for the first, less than 0.05 µM for the second.

`Cc1ccc(Cl)c(CNC(=O)c2cccc(-c3cnc(N)c(C(=O)N[C@H]4CCCNC4)n3)c2)c1F` [Example 1012, 3-amino-6-[3-({[(6-chloro-2-fluoro-3-methylphenyl)methyl]amino}carbonyl)phenyl]-N-[(3S)-piperidin-3-yl]pyrazine-2-carboxamide] and `Cc1ccc(F)c(CNC(=O)c2cccc(-c3cnc(N)c(C(=O)N[C@H]4CCCNC4)n3)c2)c1Cl` [Example 1013, 3-amino-6-[3-({[(2-chloro-6-fluoro-3-methylphenyl)methyl]amino}carbonyl)phenyl]-N-[(3S)-piperidin-3-yl]pyrazine-2-carboxamide] cannot be ordered by IC50: less than 0.05 µM for the first, less than 0.05 µM for the second.

`Nc1ncc(-c2cccc(C(=O)NCc3c(F)ccc(F)c3Cl)c2)nc1C(=O)N[C@H]1CCCNC1` [Example 1014, 3-amino-6-[3-({[(2-chloro-3,6-difluorophenyl)methyl]amino}carbonyl)phenyl]-N-[(3S)-piperidin-3-yl]pyrazine-2-carboxamide] and `Nc1ncc(-c2cccc(C(=O)NCc3c(F)ccc(Cl)c3F)c2)nc1C(=O)N[C@H]1CCCCNC1` [Example 1019, 3-amino-N-[(3S)-azepan-3-yl]-6-[3-({[(3-chloro-2,6-difluorophenyl)methyl]amino}carbonyl)phenyl]pyrazine-2-carboxamide] cannot be ordered by IC50: less than 0.05 µM for the first, less than 0.05 µM for the second.

`Nc1ncc(-c2cccc(C(=O)NCc3cc(Cl)ccc3Cl)c2)nc1C(=O)N[C@H]1CCCNC1` [Example 1015, 3-amino-6-[3-({[(2,5-dichlorophenyl)methyl]amino}carbonyl)phenyl]-N-[(3S)-piperidin-3-yl]pyrazine-2-carboxamide] and `Cc1c(Cl)cccc1CNC(=O)c1cccc(-c2cnc(N)c(C(=O)N[C@H]3CCCNC3)n2)c1` [Example 1025, 3-amino-6-[3-({[(3-chloro-2-methylphenyl)methyl]amino}carbonyl)phenyl]-N-[(3S)-piperidin-3-yl]pyrazine-2-carboxamide] cannot be ordered by IC50: less than 0.05 µM for the first, less than 0.05 µM for the second.

`Nc1ncc(-c2cccc(C(=O)NCc3ccc(F)c(F)c3F)c2)nc1C(=O)N[C@H]1CCCNC1` [Example 1016, 3-amino-N-[(3S)-piperidin-3-yl]-6-[3-({[(2,3,4-trifluorophenyl)methyl]amino}carbonyl)phenyl]pyrazine-2-carboxamide] and `Nc1ncc(-c2cccc(C(=O)NCc3cccc(F)c3F)c2)nc1C(=O)N[C@H]1CCCNC1` [Example 1017, 3-amino-6-[3-({[(2,3-difluorophenyl)methyl]amino}carbonyl)phenyl]-N-[(3S)-piperidin-3-yl]pyrazine-2-carboxamide] cannot be ordered by IC50: less than 0.05 µM for the first, less than 0.05 µM for the second.

`Nc1ncc(-c2cccc(C(=O)NCc3ccc4c(c3)OCCO4)c2)nc1C(=O)N[C@H]1CCCCNC1` [Example 1020, 3-amino-N-[(3S)-azepan-3-yl]-6-(3-{[(2,3-dihydro-1,4-benzodioxin-6-ylmethyl)amino]carbonyl}phenyl)pyrazine-2-carboxamide] and `Nc1ncc(-c2cccc(C(=O)NCc3ccc(F)c(Cl)c3)c2)nc1C(=O)N[C@H]1CCCCNC1` [Example 1023, 3-amino-N-[(3S)-azepan-3-yl]-6-[3-({[(3-chloro-4-fluorophenyl)methyl]amino}carbonyl)phenyl]pyrazine-2-carboxamide] cannot be ordered by IC50: less than 0.05 µM for the first, less than 0.05 µM for the second.

`Nc1ncc(-c2cccc(C(=O)NCc3c(F)cccc3Cl)c2)nc1C(=O)N[C@H]1CCCCNC1` [Example 1021, 3-amino-N-[(3S)-azepan-3-yl]-6-[3-({[(2-chloro-6-fluorophenyl)methyl]amino}carbonyl)phenyl]pyrazine-2-carboxamide] and `Nc1ncc(-c2cccc(C(=O)NCc3c(F)cccc3F)c2)nc1C(=O)N[C@H]1CCCCNC1` [Example 1022, 3-amino-N-[(3S)-azepan-3-yl]-6-[3-({[(2,6-difluorophenyl)methyl]amino}carbonyl)phenyl]pyrazine-2-carboxamide] cannot be ordered by IC50: less than 0.05 µM for the first, less than 0.05 µM for the second.

`Nc1ncc(-c2cccc(C(=O)NCc3cccc(Cl)c3F)c2)nc1C(=O)N[C@H]1CCCCNC1` [Example 1024, 3-amino-N-[(3S)-azepan-3-yl]-6-[3-({[(3-chloro-2-fluorophenyl)methyl]amino}carbonyl)phenyl]pyrazine-2-carboxamide] and `Cc1ccc(F)cc1CNC(=O)c1cccc(-c2cnc(N)c(C(=O)N[C@H]3CCCNC3)n2)c1` [Example 1031, 3-amino-6-[3-({[(5-fluoro-2-methylphenyl)methyl]amino}carbonyl)phenyl]-N-[(3S)-piperidin-3-yl]pyrazine-2-carboxamide] cannot be ordered by IC50: less than 0.05 µM for the first, less than 0.05 µM for the second.

First: COc1cccc(OC)c1CNC(=O)c1cccc(-c2cnc(N)c(C(=O)N[C@H]3CCCNC3)n2)c1 [Example 1026, 3-amino-6-{3-[({[2,6-bis(methyloxy)phenyl]methyl}amino)carbonyl]phenyl}-N-[(3S)-piperidin-3-yl]pyrazine-2-carboxamide]
Second: Cc1cc(CNC(=O)c2cccc(-c3cnc(N)c(C(=O)N[C@H]4CCCNC4)n3)c2)ccc1F [Example 1029, 3-amino-6-[3-({[(4-fluoro-3-methylphenyl)methyl]amino}carbonyl)phenyl]-N-[(3S)-piperidin-3-yl]pyrazine-2-carboxamide]
The IC50 of the first is higher: 0.05 to 1 µM for the first, less than 0.05 µM for the second. The second is the more potent here.

`Nc1ncc(-c2cccc(C(=O)NCc3ccc(F)c(Br)c3)c2)nc1C(=O)N[C@H]1CCCNC1` [Example 1027, 3-amino-6-[3-({[(3-bromo-4-fluorophenyl)methyl]amino}carbonyl)phenyl]-N-[(3S)-piperidin-3-yl]pyrazine-2-carboxamide] and `Nc1ncc(-c2cccc(C(=O)NCc3cc(F)cc(Br)c3)c2)nc1C(=O)N[C@H]1CCCNC1` [Example 1032, 3-amino-6-[3-({[(3-bromo-5-fluorophenyl)methyl]amino}carbonyl)phenyl]-N-[(3S)-piperidin-3-yl]pyrazine-2-carboxamide] cannot be ordered by IC50: less than 0.05 µM for the first, less than 0.05 µM for the second.

`Nc1ncc(-c2cccc(C(=O)NCc3cc(F)c(F)c(F)c3)c2)nc1C(=O)N[C@H]1CCCNC1` [Example 1028, 3-amino-N-[(3S)-piperidin-3-yl]-6-[3-({[(3,4,5-trifluorophenyl)methyl]amino}carbonyl)phenyl]pyrazine-2-carboxamide] and `Nc1ncc(-c2cccc(C(=O)NCc3cc(F)cc(F)c3F)c2)nc1C(=O)N[C@H]1CCCNC1` [Example 1030, 3-amino-N-[(3S)-piperidin-3-yl]-6-[3-({[(2,3,5-trifluorophenyl)methyl]amino}carbonyl)phenyl]pyrazine-2-carboxamide] cannot be ordered by IC50: less than 0.05 µM for the first, less than 0.05 µM for the second.

Molecule `Nc1ncc(-c2cccc(C(=O)NCc3ccc(-n4cccn4)cc3)c2)nc1C(=O)N[C@H]1CCCNC1` [Example 1033, 3-amino-N-[(3S)-piperidin-3-yl]-6-{3-[({[4-(1H-pyrazol-1-yl)phenyl]methyl}amino)carbonyl]phenyl}pyrazine-2-carboxamide] has an IC50 of less than 0.05 µM.
